The CheMixHub viscosity set
± gives the uncertainty stated by the source.

Columns and labels:
[1] = xn = mol fraction of the nth substance listed

CC(C)CN + COCCO
[1], 298.15 K, 101 kPa
Settings	viscosity [mPa·s]
x2 = 0.05	0.614 ± 0.016
x2 = 0.1001	0.666 ± 0.017
x2 = 0.1511	0.719 ± 0.019
x2 = 0.2	0.788 ± 0.02
x2 = 0.2513	0.869 ± 0.022
x2 = 0.2996	0.95 ± 0.024
x2 = 0.3519	1.043 ± 0.027
x2 = 0.4002	1.132 ± 0.029
x2 = 0.4491	1.221 ± 0.031
x2 = 0.4989	1.308 ± 0.034
x2 = 0.5501	1.387 ± 0.036
x2 = 0.6	1.457 ± 0.037
x2 = 0.6521	1.52 ± 0.039
x2 = 0.6999	1.567 ± 0.04
x2 = 0.7502	1.608 ± 0.041
x2 = 0.8	1.632 ± 0.042
x2 = 0.8512	1.643 ± 0.042
x2 = 0.9	1.641 ± 0.042
x2 = 0.9492	1.609 ± 0.041

NC(=O)c1ccccc1 + c1ccncc1
[1], 298.15 K, 101 kPa
Settings	viscosity [mPa·s]
x1 = 0.0343	1.055 ± 0.21
x1 = 0.08504	1.331 ± 0.27

CCCCCCCC/C=C\CCCCCCCC(=O)O
101 kPa
Settings	viscosity [mPa·s]
298.15 K	35.41 ± 0.43
323.15 K	14.38 ± 0.2

Cc1cc(C)cc(C)c1 + CCCCCCCCCCO
viscosity [mPa·s], [1], 101 kPa
Settings	298.15 K	308.15 K
x1 = 0.0752	9.427 ± 0.063	6.401 ± 0.045
x1 = 0.1354	7.818 ± 0.052	5.334 ± 0.038
x1 = 0.2083	6.204 ± 0.042	4.256 ± 0.03
x1 = 0.265	5.179 ± 0.035	3.572 ± 0.025
x1 = 0.3292	4.194 ± 0.028	2.936 ± 0.02
x1 = 0.3894	3.456 ± 0.023	2.445 ± 0.017
x1 = 0.4633	2.728 ± 0.018	1.942 ± 0.014
x1 = 0.5303	2.202 ± 0.015	1.595 ± 0.012
x1 = 0.6033	1.754 ± 0.012	1.279 ± 0.01
x1 = 0.6643	1.458 ± 0.011	1.084 ± 0.009
x1 = 0.7341	1.195 ± 0.009	0.901 ± 0.008
x1 = 0.7998	1.002 ± 0.009	0.768 ± 0.008
x1 = 0.8724	0.838 ± 0.008	0.669 ± 0.007
x1 = 0.9442	0.728 ± 0.008	0.606 ± 0.007

Cc1cc(C)cc(C)c1 + CCCO
[1], 293.15 K, 101 kPa
Settings	viscosity [mPa·s]
x2 = 0.2	0.748 ± 0.015
x2 = 0.4	0.855 ± 0.017
x2 = 0.6	1.075 ± 0.02
x2 = 0.8	1.419 ± 0.026

O=C1CCCN1 + CC(C)CO
Settings	viscosity [mPa·s]
[1], 303.15 K, 101 kPa, x1 = 0.9753	10.15 ± 0.76

OCCCCO + CN1CCCC1=O
[1], 308.15 K, 101 kPa
Settings	viscosity [mPa·s]
x1 = 0.0277	1.784 ± 0.014
x1 = 0.0556	1.943 ± 0.015
x1 = 0.1011	2.235 ± 0.017
x1 = 0.1982	3.025 ± 0.023
x1 = 0.2982	4.088 ± 0.031
x1 = 0.4038	5.57 ± 0.041
x1 = 0.4943	7.06 ± 0.051
x1 = 0.6011	11.08 ± 0.078
x1 = 0.7044	16.24 ± 0.11
x1 = 0.7935	21.61 ± 0.15
x1 = 0.8996	33.43 ± 0.23
x1 = 0.946	39.29 ± 0.27
x1 = 0.965	41.43 ± 0.28

O=C1CCCN1
101.33 kPa
Settings	viscosity [mPa·s]
304.15 K	10.5 ± 0.28
308.15 K	9.102 ± 0.24
313.15 K	7.687 ± 0.2
318.15 K	6.593 ± 0.17
323.15 K	5.666 ± 0.15

O=C(Cc1ccccc1)c1ccccc1 + CCCCCOC(C)=O
[1], 298.15 K, 101 kPa
Settings	viscosity [mPa·s]
x1 = 0.0268	0.8294 ± 0.01
x1 = 0.0344	0.849 ± 0.011

Cc1cc(C)cc(C)c1 + CS(C)=O
viscosity [mPa·s], [1], 101.3 kPa
Settings	x2 = 0.0996	x2 = 0.1961	x2 = 0.3046	x2 = 0.4024	x2 = 0.5049	x2 = 0.6057	x2 = 0.7047	x2 = 0.8055	x2 = 0.9018
298.15 K	0.699 ± 0.037	0.772 ± 0.04	0.865 ± 0.044	1.018 ± 0.05	1.168 ± 0.057	1.28 ± 0.062	1.367 ± 0.065	1.508 ± 0.071	1.711 ± 0.08
303.15 K	0.654 ± 0.035	0.718 ± 0.037	0.799 ± 0.041	0.901 ± 0.045	1.029 ± 0.051	1.136 ± 0.055	1.241 ± 0.06	1.372 ± 0.066	1.553 ± 0.073
308.15 K	0.616 ± 0.033	0.674 ± 0.035	0.747 ± 0.039	0.831 ± 0.042	0.935 ± 0.047	1.036 ± 0.051	1.135 ± 0.055	1.266 ± 0.061	1.42 ± 0.068

CN(c1ccccc1)c1ccccc1 + Oc1ccccc1Cl
viscosity [mPa·s], [1], 101 kPa
Settings	x2 = 0.1862	x2 = 0.3326	x2 = 0.47	x2 = 0.5927	x2 = 0.6593	x2 = 0.7583	x2 = 0.8455	x2 = 0.9249
293.15 K	6.47 ± 0.07	5.95 ± 0.07	5.53 ± 0.06	5.2 ± 0.06	5.02 ± 0.06	4.79 ± 0.06	4.59 ± 0.05	4.4 ± 0.05
303.15 K	4.635 ± 0.05	4.305 ± 0.046	4.03 ± 0.04	3.805 ± 0.041	3.685 ± 0.039	3.51 ± 0.04	3.36 ± 0.04	3.215 ± 0.035
313.15 K	3.5 ± 0.03	3.25 ± 0.03	3.04 ± 0.03	2.85 ± 0.03	2.75 ± 0.03	2.6 ± 0.03	2.49 ± 0.03	2.39 ± 0.02

CC[n+]1ccccc1.O=S(=O)([O-])C(F)(F)F
101 kPa
Settings	viscosity [mPa·s]
293.15 K	75.2 ± 4.6
298.15 K	60.58 ± 3.7
303.15 K	48.77 ± 3
313.15 K	33.78 ± 2.1
323.15 K	24.47 ± 1.5

CCCCCC[N+]1(C)CCOCC1.[Br-] + O=S1(=O)CCCC1
[1], 100 kPa, x1 = 0.0998
Settings	viscosity [mPa·s]
293.15 K	42.16 ± 0.95
298.15 K	34.36 ± 0.78
303.15 K	28.35 ± 0.64
308.15 K	23.7 ± 0.54
313.15 K	20.06 ± 0.45
318.15 K	17.1 ± 0.39
323.15 K	14.72 ± 0.33

Cc1cc(C)cc(C)c1 + CC(C)=O
[1], 307.35 K, 101.33 kPa
Settings	viscosity [mPa·s]
x2 = 0.1387	0.541 ± 0.0096
x2 = 0.4493	0.447 ± 0.0088
x2 = 0.5975	0.403 ± 0.0084
x2 = 0.6567	0.383 ± 0.0083
x2 = 0.7521	0.362 ± 0.0081
x2 = 0.9168	0.313 ± 0.0077
